Results as given in ChEMBL document CHEMBL1201862, “PubChem BioAssay data set” (2004).
Calls of active or inactive are those of the source.

Tests used:
[1] = target: NAD-dependent protein deacylase sirtuin-5, mitochondrial (Homo sapiens, UniProt Q9NXA8); assay: sirtuin-5 deacylation blockers, concentration series – biochemical, fluorescence imaging, cherry-pick, set 5, dose response (AID 720591);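 further: desuccinylation of succinyl peptide AMC substrate read as fluorescence after trypsin release; potency of inhibitors that lower fluorescence and may act on trypsin instead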
[2] = target: T1, Heat shock factor protein 1 (Mus musculus, UniProt P38532); assay: decrease of HSF1-responsive luciferase luminescence – cell-based, NIH3T3, dose retest, confirmation (AID 2382); assay type: functional;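 further: NIH3T3 fibroblasts with HSF1-driven luciferase reporter stressed by proteasome inhibitor MG132; luminescence from HSF1-driven luciferase expression after 8 hours of MG132 stress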
T1 sequence (P38532 whole entry): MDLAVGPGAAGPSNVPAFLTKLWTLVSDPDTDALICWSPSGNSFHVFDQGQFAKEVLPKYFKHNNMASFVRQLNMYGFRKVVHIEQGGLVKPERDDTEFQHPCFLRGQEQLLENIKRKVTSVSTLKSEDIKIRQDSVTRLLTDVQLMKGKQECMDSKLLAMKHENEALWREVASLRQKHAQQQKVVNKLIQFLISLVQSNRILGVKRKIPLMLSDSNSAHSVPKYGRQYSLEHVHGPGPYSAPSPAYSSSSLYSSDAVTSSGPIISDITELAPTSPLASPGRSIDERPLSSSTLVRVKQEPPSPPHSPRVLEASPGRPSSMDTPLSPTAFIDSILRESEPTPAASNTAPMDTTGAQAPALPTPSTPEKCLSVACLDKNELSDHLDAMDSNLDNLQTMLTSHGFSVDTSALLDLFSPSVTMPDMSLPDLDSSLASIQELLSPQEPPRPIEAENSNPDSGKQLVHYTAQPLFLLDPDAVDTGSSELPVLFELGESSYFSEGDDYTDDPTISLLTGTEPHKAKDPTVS

Major prion protein = Major prion protein (Homo sapiens, UniProt P04156); assay type: functional, cell-based
Fatty acid synthase = Fatty acid synthase (Homo sapiens, UniProt P49327); assay: inhibition of human FAS-TE enzyme activity – biochemical, endpoint fluorescence intensity, powder samples, SAR follow-up (AID 652164); assay type: functional
[3] = target: T2, Oxysterols receptor LXR-beta (Homo sapiens, UniProt P55055); assay type: functional, cell-based;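 further: agonist activity at LXR measured by a cell-based luminescence readout across a dose range, run as a counterscreen for daf-12 agonists; HEK293 cells with Gal4-LXR fusion and GAL4-driven luciferase reporter; potency for activation of Gal4-LXR reporter so compounds are agonists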
T2 sequence (P55055 whole entry): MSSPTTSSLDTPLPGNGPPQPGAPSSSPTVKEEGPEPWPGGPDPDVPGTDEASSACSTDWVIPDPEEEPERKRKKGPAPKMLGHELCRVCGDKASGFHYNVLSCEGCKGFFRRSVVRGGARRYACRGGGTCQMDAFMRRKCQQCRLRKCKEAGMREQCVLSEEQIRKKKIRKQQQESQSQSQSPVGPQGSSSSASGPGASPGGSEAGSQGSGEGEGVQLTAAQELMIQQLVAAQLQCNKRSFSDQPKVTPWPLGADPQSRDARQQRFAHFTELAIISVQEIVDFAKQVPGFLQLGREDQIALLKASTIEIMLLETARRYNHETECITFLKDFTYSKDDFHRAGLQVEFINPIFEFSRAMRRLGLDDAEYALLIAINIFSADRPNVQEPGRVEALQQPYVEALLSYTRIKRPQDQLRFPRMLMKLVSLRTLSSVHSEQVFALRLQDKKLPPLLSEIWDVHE

[4] = target: T1, Heat shock factor protein 1; assay: enhancement of HSF1-driven luciferase signal – cell-based, NIH3T3, luminescence, dose retest, confirmation (AID 435004); assay type: functional;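 further: stress induced by proteasome inhibitor MG132 added 30 min after compound; luciferase reporter driven by HSF1 response element in NIH3T3 cells; actives raise luminescence as potentiators of the MG132 stress response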
[5] = target: Potassium channel subfamily K member 3 (Homo sapiens, UniProt O14649); assay: inhibition of human KCNK3 channel flux – CHO cells, FluxOR thallium flux, SAR follow-up (AID 652212); assay type: functional
[6] = target: Potassium channel subfamily K member 9 (Homo sapiens, UniProt Q9NPC2); assay: KCNK9 flux blockade, concentration-response – cell-based, FluxOR thallium flux, selectivity assay for TASK1 inhibitor project, SAR follow-up (AID 652211); assay type: functional;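 further: potency is for inhibitors of the channel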
[7] = Luminescence Cell-Based Dose Response HTS to Identify Activators of Luciferase Translation or Activity in H4 […] Cells. [Related pubchem assays: 1829 (Project Summary), 1814 (Primary HTS)]; assay type: functional
[8] = potency of ADAM10 substrate cleavage blockers – biochemical, QFRET, dose response (AID 743254);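 further: ADAM10 enzyme with the DM2 quenched FRET peptide as substrate; EDANS fluorescence gain as the protease cuts the substrate; inhibitor potency against ADAM10 proteolytic activity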
[9] = Luminescence Cell-Based Dose Confirmation HTS to Identify Activators of 5'UTR Stem-Loop Driven Alpha-Synuclein mRNA Translation in H4 Neuroglioblastoma Cells. [Related pubchem assays: 1829 (Project Summary), 1814 (Primary HTS)]; assay type: functional
H4 = assay: Luminescence Cell-Based Dose Response HTS to Identify Activators of 5'UTR Stem-Loop Driven Prion Protein mRNA Translation in H4 Neuroglioblastoma Cells. [Related pubchem assays: 1829 (Project Summary), 1814 (Primary HTS)]; assay type: functional; conditions: Homo sapiens

**Q.** Which AC50 [1] does the source give for `CCc1ccccc1-n1c(SCC(=O)NC)nnc1-c1ccco1` here?
**A.** The AC50 was > 30 µM (inactive).

**Q.** For `COc1nc(-c2ccccc2)c2cc(Br)ccc2n1`, which IC50 (cells) is on record?
**A.** The IC50 was > 138 µM (inactive).

**Q.** What about the EC50 [2] of the same compound?
**A.** The EC50 was > 195 µM (not active).

**Q.** And the IC50 (Major prion protein)?
**A.** The IC50 was 5.53 µM (active).

**Q.** Which IC50 (Fatty acid synthase) does the source give for `CN(C)S(=O)(=O)c1ccc(-c2csc(NC(=O)C3CCCC3)n2)cc1` here?
**A.** The IC50 was 1.55 µM (active).

**Q.** With `Cc1cc(NC(=O)CSc2nc3c(cc2C#N)CCC3)no1` as the compound, how does the EC50 [3] read?
**A.** Its EC50 is > 67.6 µM (inactive).

**Q.** And the EC50 [4]?
**A.** The EC50 was 830 nM (active).

**Q.** For `CCOc1ccccc1NC(=O)c1cccc(NC(=O)C(C)(C)C)c1`, which IC50 [5] is on record?
**A.** Its IC50 is 1.32 µM (active).

**Q.** What about the IC50 [6] of the same compound?
**A.** Its IC50 is 30.5 µM (active).

**Q.** For `CC(C)(C)c1ccc(S(=O)(=O)NC(=O)C2(C)CCN2C(=O)C2CCCCC2)cc1` (stereo not given), which AC50 [1] is on record?
**A.** The AC50 was > 30 µM (inactive).

**Q.** For `CN(C)S(=O)(=O)c1ccc(-c2csc(NC(=O)C3CC3)n2)cc1`, which IC50 (Fatty acid synthase) is on record?
**A.** The IC50 was 1.23 µM (active).

**Q.** What does the source list for `CCc1ccc(-c2cn(C3CCCCC3)c(S)n2)cc1`?
**A.** EC50 [7]: > 120 µM (not active); IC50 [8]: > 69.5 µM (inactive); EC50 [9]: 67.1 µM (active); EC50 (H4): > 60 µM (not active)
